Measurements published in the NIST ThermoML archive (doi:10.1021/je049612f).

Details: Gas, Vibrating wire viscometry

FS(F)(F)(F)(F)F [sulfur hexafluoride]
Details | viscosity [mPa·s]
350 K, 269.03 kPa | 0.0176
350 K, 295.24 kPa | 0.0176
350 K, 332.44 kPa | 0.01761
350 K, 363.13 kPa | 0.01762
350 K, 390.5 kPa | 0.01763
350 K, 418.5 kPa | 0.01765
350 K, 450.38 kPa | 0.01765
350 K, 485.3 kPa | 0.01766
350 K, 522.75 kPa | 0.01767
350 K, 552.81 kPa | 0.01768
350 K, 579.7 kPa | 0.01769
350 K, 619.51 kPa | 0.01771
350 K, 654.26 kPa | 0.01772
350 K, 701.64 kPa | 0.01775
350 K, 739.48 kPa | 0.01775
350 K, 779.89 kPa | 0.01777
350 K, 809.98 kPa | 0.01779
350 K, 855.04 kPa | 0.0178
350 K, 900.26 kPa | 0.01782
350 K, 954.25 kPa | 0.01784
350 K, 997.88 kPa | 0.01787
350 K, 1051.5 kPa | 0.0179
350 K, 1146.2 kPa | 0.01795
350 K, 1196.5 kPa | 0.01798
350 K, 1265.4 kPa | 0.01803
350 K, 1341.2 kPa | 0.01807
350 K, 1392.7 kPa | 0.01811
350 K, 1473.1 kPa | 0.01816
350 K, 1546.1 kPa | 0.01821
350 K, 1621.8 kPa | 0.01827
350 K, 1656.3 kPa | 0.0183
350 K, 1713.2 kPa | 0.01835
350 K, 1840 kPa | 0.01844
350 K, 1888.3 kPa | 0.01849
350 K, 1964.6 kPa | 0.01856
350 K, 2005.9 kPa | 0.01861
350 K, 2043.2 kPa | 0.01864
350 K, 2108.6 kPa | 0.01871
350 K, 2309.3 kPa | 0.01893
350 K, 2394 kPa | 0.01903
350 K, 2449.2 kPa | 0.01908
350 K, 2505.1 kPa | 0.01916
350 K, 2608.1 kPa | 0.01929
350 K, 2657.7 kPa | 0.01936
350 K, 2798.4 kPa | 0.01957
350 K, 2900.4 kPa | 0.01971
350 K, 2978.2 kPa | 0.01986
350 K, 3047.1 kPa | 0.01996
350 K, 3125.3 kPa | 0.0201
350 K, 3224.5 kPa | 0.02028
350 K, 3319.6 kPa | 0.02047
350 K, 3405.3 kPa | 0.02064
350 K, 3504.4 kPa | 0.02085
350 K, 3655.4 kPa | 0.02123
350 K, 3748 kPa | 0.02146
350 K, 3869.5 kPa | 0.02179
350 K, 3987.5 kPa | 0.02211
350 K, 4143 kPa | 0.02261
350 K, 4307.3 kPa | 0.02322
350 K, 4473.2 kPa | 0.02386
350 K, 4598.1 kPa | 0.02443
350 K, 4732.9 kPa | 0.02508
350 K, 4848.3 kPa | 0.02571
350 K, 4964.3 kPa | 0.02637
350 K, 5096.1 kPa | 0.02724
350 K, 5208.7 kPa | 0.02806
350 K, 5327.4 kPa | 0.02902
350 K, 5431.3 kPa | 0.02995
350 K, 5524.2 kPa | 0.03078
350 K, 5638.8 kPa | 0.03189
350 K, 5741 kPa | 0.03299
350 K, 5850 kPa | 0.03434
350 K, 5956.2 kPa | 0.03561
350 K, 6067.6 kPa | 0.03706
350 K, 6177.6 kPa | 0.03857
350 K, 6280.8 kPa | 0.03995
350 K, 6385.1 kPa | 0.04139
350 K, 6510.8 kPa | 0.04319
350 K, 6635.4 kPa | 0.04497
350 K, 6769.6 kPa | 0.04684
350 K, 6918.8 kPa | 0.04891
350 K, 7076.5 kPa | 0.05108
350 K, 7230 kPa | 0.05306
350 K, 7408.1 kPa | 0.05532
350 K, 7592 kPa | 0.05755
350 K, 7767.3 kPa | 0.05957
350 K, 8006.2 kPa | 0.06218
350 K, 8297.4 kPa | 0.06505
350 K, 8558.7 kPa | 0.06754
350 K, 8849.5 kPa | 0.07028
350 K, 9294 kPa | 0.07399
350 K, 9823.4 kPa | 0.07814
350 K, 10614 kPa | 0.08354
350 K, 11424 kPa | 0.08869
350 K, 12301 kPa | 0.09386
375 K, 72.56 kPa | 0.01862
375 K, 103.02 kPa | 0.01864
375 K, 132.08 kPa | 0.01864
375 K, 156.74 kPa | 0.01865
375 K, 183.32 kPa | 0.01866
375 K, 219.98 kPa | 0.01868
375 K, 258.3 kPa | 0.01869
375 K, 282.8 kPa | 0.0187
375 K, 308.36 kPa | 0.01871
375 K, 342.15 kPa | 0.01871
375 K, 371.36 kPa | 0.01872
375 K, 403.52 kPa | 0.01873
375 K, 435.36 kPa | 0.01874
375 K, 464.82 kPa | 0.01875
375 K, 499.73 kPa | 0.01876
375 K, 539.14 kPa | 0.01878
375 K, 563.93 kPa | 0.01878
375 K, 612.98 kPa | 0.0188
375 K, 661.4 kPa | 0.01882
375 K, 695.12 kPa | 0.01884
375 K, 746.7 kPa | 0.01886
375 K, 805.08 kPa | 0.01888
375 K, 855.26 kPa | 0.0189
375 K, 917.96 kPa | 0.01894
375 K, 999.57 kPa | 0.01897
375 K, 1067.6 kPa | 0.01901
375 K, 1146.8 kPa | 0.01905
375 K, 1211.3 kPa | 0.01909
375 K, 1302.5 kPa | 0.01914
375 K, 1385 kPa | 0.01919
375 K, 1460.9 kPa | 0.01924
375 K, 1534.4 kPa | 0.01928
375 K, 1588.3 kPa | 0.01932
375 K, 1723.3 kPa | 0.01941
375 K, 1809.5 kPa | 0.01948
375 K, 1885.1 kPa | 0.01954
375 K, 1966.6 kPa | 0.01959
375 K, 2043 kPa | 0.01966
375 K, 2300.6 kPa | 0.0199
375 K, 2399.3 kPa | 0.01998
375 K, 2484.3 kPa | 0.02006
375 K, 2587.3 kPa | 0.02019
375 K, 2879.2 kPa | 0.02051
375 K, 3052.5 kPa | 0.02072
375 K, 3214.1 kPa | 0.02095
375 K, 3418.4 kPa | 0.02122
375 K, 3699.7 kPa | 0.02167
375 K, 3960.7 kPa | 0.02214
375 K, 4136.6 kPa | 0.02249
375 K, 4384.3 kPa | 0.02299
375 K, 4599 kPa | 0.02348
375 K, 4821 kPa | 0.02401
375 K, 5057 kPa | 0.02467
375 K, 5280.9 kPa | 0.02535
375 K, 5535.4 kPa | 0.02617
375 K, 5778.6 kPa | 0.02706
375 K, 6000.4 kPa | 0.02791
375 K, 6326.2 kPa | 0.02939
375 K, 6677.7 kPa | 0.03112
375 K, 6887.6 kPa | 0.03224
375 K, 7092.9 kPa | 0.03343
375 K, 7293.5 kPa | 0.03466
375 K, 7524.4 kPa | 0.03612
375 K, 7762.9 kPa | 0.0377
375 K, 7973.1 kPa | 0.03919
375 K, 8202 kPa | 0.04079
375 K, 8452.7 kPa | 0.04259
375 K, 8711.3 kPa | 0.04448
375 K, 8972.9 kPa | 0.04632
375 K, 9257.7 kPa | 0.04836
375 K, 9573.7 kPa | 0.05065
375 K, 9868.9 kPa | 0.05275
375 K, 10221 kPa | 0.05519
375 K, 10547 kPa | 0.05738
